Experimental data reported in US6451801B1, “Compounds and methods for treatment of asthma, allergy and inflammatory disorders” (UCB, S.A., priority 1999, dated 2002).
pIC50, pKi: −log10 of the molar value.

What was measured:
[1] = tested on: histamine-induced bronchoconstriction; test: Antihistaminergic activity in vivo (histamine-induced bronchoconstriction); details: guinea pig, oral, 2 mg/kg; for inhibition in vivo at 2 mg/kg: Cavia porcellus
Protocol: Male, Hartley guinea pigs are obtained from Charles River Labs at a body weight of 350 -400 grams. Inhibition of histamine activity is measured by the method of Konzett and Rössler (Naonyn-Schmiedebergs Arch. Exp. Path. Pharmakol. 195, 71-74 (1940). Anaethetized guinea pigs are subjected to artificial ventilation. The endotracheal pressure is recorded. Bronchoconstriction is induced by successive intravenous injections of histamine. The test compounds are administered orally in a 1% methocellulose suspension at set timepoints prior to the administration of histamine.
The results (Table 2) show the percent inhibition of histamine-induced bronchoconstriction by selected compounds at multiple time points post oral dosing. 50% inhibition or greater is considered significant.

human cloned H1 receptor = target: T1, human cloned H1 receptor (Homo sapiens, UniProt P35367); test: CHO-K1 H1R binding assay; details: 3H-pyrilamine 2 nM, CHO-K1 membranes, 3 hours at 37° C.; read-out: CHOH1 K1
T1 construct: expressed in transfected cells; host or cells: CHO-K1
T1 sequence (P35367 whole entry): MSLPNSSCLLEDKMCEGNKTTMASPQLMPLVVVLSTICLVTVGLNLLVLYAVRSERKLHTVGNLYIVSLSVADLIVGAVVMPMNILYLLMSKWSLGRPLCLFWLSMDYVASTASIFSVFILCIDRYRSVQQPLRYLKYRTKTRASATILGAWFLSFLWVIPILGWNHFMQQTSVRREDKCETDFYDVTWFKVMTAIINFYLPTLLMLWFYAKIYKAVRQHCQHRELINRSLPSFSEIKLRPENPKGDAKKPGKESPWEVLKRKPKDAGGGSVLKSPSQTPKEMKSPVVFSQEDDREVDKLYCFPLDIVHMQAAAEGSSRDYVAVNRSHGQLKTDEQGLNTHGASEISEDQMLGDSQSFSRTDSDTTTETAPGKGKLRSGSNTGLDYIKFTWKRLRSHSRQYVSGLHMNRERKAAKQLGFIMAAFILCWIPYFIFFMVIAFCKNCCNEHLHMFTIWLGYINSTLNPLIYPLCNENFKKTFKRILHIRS
Protocol: CHO-K1 cells expressing the human cloned H1 receptor are grown to confluence in tissue culture dishes. Cells are harvested using D-PBS buffer (JRH Biosciences), kept at 4° C., centrifuging to pellet cells (4° C., 500 g, 10 min). The final cell pellet is homogenized and resuspended using Tris/sucrose buffer (20 mM Tris, 250 mM sucrose, pH 7.4 at 4° C.). Aliquots of the membrane preparation are stored at −70° C.
On the day of assay, the membrane preparation is thawed and centrifuged (TLA100.3 rotor, 4° C., 15 min, 23,000 rpm). The pellet is resuspended in Tris/sucrose buffer initially and then diluted further as necessary using assay buffer A (50 mM Na/KPO4, 2 mM MgCl2, 0.5% (w/v) BSA, pH 7.5).
For the binding assay, the membrane preparation, test compound and ^3H-pyrilamine (2 nM final) in buffer A with 1% (v/v) DMSO final are incubated in a 96-well polypropylene plate for 3 hours at 37° C. Non-specific binding is determined in the presence of 10 μM pyrilamine. A 96-well harvester (Packard) is used to harvest the 96-well plate onto a GF/B filter plate pre-treated with 0.1% (v/v) PEI. The plate is counted in a Packard Topcounter after adding Microscint 20 (Packard) scintillation fluid. The Ki for each compound at the histamine H1 receptor is then calculated from these counts.

[2] = target: T2, human 5-lipoxygenase enzyme (Homo sapiens, UniProt P09917); test: Inhibition of LTB4 production in human whole blood; format: cell-based; details: human whole blood, calcium ionophore A23187 50 μM, LTB4 by EIA; read-out: HWB IC50
T2 construct: endogenous in cells; host or cells: human whole blood (leukocytes) stimulated with A23187
T2 sequence (P09917 1-674): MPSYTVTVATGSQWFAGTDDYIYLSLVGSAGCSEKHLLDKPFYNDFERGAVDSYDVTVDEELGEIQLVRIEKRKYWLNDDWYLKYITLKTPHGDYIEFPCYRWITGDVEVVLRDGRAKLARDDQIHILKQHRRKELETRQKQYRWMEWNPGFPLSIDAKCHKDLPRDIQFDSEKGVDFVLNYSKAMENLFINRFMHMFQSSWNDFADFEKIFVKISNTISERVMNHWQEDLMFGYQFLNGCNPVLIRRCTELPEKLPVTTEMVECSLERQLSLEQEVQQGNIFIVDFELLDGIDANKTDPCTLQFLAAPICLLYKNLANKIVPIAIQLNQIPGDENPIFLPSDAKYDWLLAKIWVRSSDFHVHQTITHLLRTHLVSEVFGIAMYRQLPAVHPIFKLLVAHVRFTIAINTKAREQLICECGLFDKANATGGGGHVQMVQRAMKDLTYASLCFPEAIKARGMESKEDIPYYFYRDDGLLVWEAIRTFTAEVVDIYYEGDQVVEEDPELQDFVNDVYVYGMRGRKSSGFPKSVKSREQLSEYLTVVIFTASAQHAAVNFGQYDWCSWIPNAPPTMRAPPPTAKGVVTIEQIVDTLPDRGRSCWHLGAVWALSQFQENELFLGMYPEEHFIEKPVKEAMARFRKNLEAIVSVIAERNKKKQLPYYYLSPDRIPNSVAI
Protocol: This assay examines the ability of a compound to inhibit leukotriene B4 production from human blood stimulated with calcium ionophore. As this production of leukotriene B4 is mediated via the activation of the 5-lipoxygenase enzyme, this assay is predictive of a compound's ability to inhibit the human 5-lipoxygenase enzyme.
The procedure for the assay is as follows. Blood is drawn from normal human volunteers into tubes containing heparin. 1 ml of the heparinized blood is pipetted into a 1.5 ml polypropylene tube. To this sample is added either different concentrations of the test compound (5 μl) dissolved in DMSO or 5 μl of DMSO as a vehicle control. These samples are incubated in a water bath, at 37° C. for 15 min. 5 μl of the calcium ionophore A23187 (at a final concentration of 50 μM) is then added to each sample, which is vortexed and placed back in the water bath for 30 min. The samples are then centrifuged at 2500 rpm for 10 min. at 4° C. 50 μl of the supernatant is transferred into pre-cooled Eppendorf tubes containing 950 μl of enzyme immunoassay (EIA) buffer. A commercially available EIA kit (Cayman Chemical Co., Ann Arbor, Mich., USA) is used to subsequently measure the LTB4 production in the samples. The LTB4 levels produced in the vehicle control sample is then compared to those in which the test compound has been added. From this a percent inhibition of LTB4 production by each concentration of test compound is calculated and the IC50 for inhibition of LTB4 production for each test compound is determined.

5-lipoxygenase = test: 5-Lipoxygenase inhibitory activity in vivo; details: guinea pig, oral, 2 mg/kg
Protocol: Male, Hartley guinea pigs are obtained from Charles River Labs at a body weight of 350-400 grams. Compounds are prepared at a volume of [1-2 mg/ml] in 1% methocellulose for oral dosing. Animals are separated into groups of five (5). Each assay includes a control group dosed with vehicle. Each group of animals is dosed with either vehicle or compound by oral gavage. Animals are allowed to rest for one, three, or six hours after dosing. Control animals are allowed to rest for three hours. At the appropriate times, the animals are anesthetized with Urethane at 1.5 g/kg, ip. Blood is drawn into a heparinized syringe via cardiac puncture. Blood (0.5 ml) is aliquoted into separately-labeled 1.5 ml eppendorf tubes. Each sample is loaded with 5 μl of [15 mM] Arachidonic Acid, and placed in a 37° C. water bath for five minutes. After five minutes, the blood is stimulated with 5 μl of [5 mM] A23187 (Calcium Ionophore) and retained in the water bath for an additional 30 minutes. After the thirty minutes, the blood samples are removed from the water bath and centrifuged at 14,000 rpm for 2 minutes. Plasma is diluted to EIA buffer and an EIA is performed following manufacturer instructions (Cayman Chemical Co., Ann Arbor, Mich., USA). The results (Table 3) show the percent inhibition of 5-lipoxygenase by selected compounds at multiple time points post oral dosing. 50% inhibition or greater is considered significant.

pKi (human cloned H1 receptor)	pIC50 [2]	Molecule	also measured
8.15	6.60	CN(O)C(=O)NCc1cccc(OCCN2CCN([C@H](c3ccccc3)c3ccc(Cl)cc3)CC2)c1 [Compound 24, N-{[3-(2-{4-[(1R) (4-chlorophenyl)phenylmethyl]piperazinyl}ethoxy)phenyl]methyl} (methyl(hydroxyamino)) carboxamide]	
6.38	7.03	COC(=O)c1cc(C#CCCN(O)C(N)=O)ccc1OCCN1CCN([C@H](c2ccccc2)c2ccc(Cl)cc2)CC1 [Compound 36, methyl2-(2-{4-[(1R) (4-chlorophenyl)phenyl-methyl]piperazinyl}ethoxy)-5-[4-(amino-hydroxycarbonylamino)but-1-ynyl]benzoate]	
	6.57	NC(=O)N(O)CCC#Cc1ccc(OCCN2CCN([C@H](c3ccccc3)c3ccc(Cl)cc3)CC2)cc1 [Compound 12, N-{4-[4-(2-{4-[(1R) (4-chlorophenyl)phenylmethyl]piperazinyl}ethoxy)phenyl]but-3-ynyl} amino-N-hydroxyamide]	inhibition in vivo at 2 mg/kg ([1]; 3 hrs): 62%; inhibition in vivo at 2 mg/kg ([1]; 6 hrs): 66%; % inhibition of 5-lipoxygenase (5-lipoxygenase; 6 hours): 80%
8.10	5.83	N-[2-(2-{4-[(1R)(4-chlorophenyl)phenylmethyl] piperazinyl}ethoxy)ethyl]amino-N-hydroxyamide [Compound 22]	
7.44	6.39	NC(=O)N(O)CCCCc1cccc(OCCN2CCN(C(c3ccccc3)c3ccccc3)CC2)c1 [Compound 30, amino-N-[4-(3-{2-[4-(diphenylmethyl)piperazinyl]ethoxy}phenyl)butyl]-N-hydroxyamide]	
6.88	6.50	NC(=O)N(O)CCC#C[C@@H]1CC[C@@H](CN2CCN([C@H](c3ccccc3)c3ccc(Cl)cc3)CC2)O1 [Compound 46, N-{4-[5-({4-[(1R)(4-chlorophenyl)phenylmethyl]piperazinyl}methyl)(2S,5S)oxolan-2-yl]but-3-ynyl}amino-N-hydroxyamide]	
7.46	6.97	NC(=O)c1cc(CCCCN(O)C(N)=O)ccc1OCCN1CCN([C@H](c2ccccc2)c2ccc(Cl)cc2)CC1 [Compound 42, 2-(2-{4-[(1R)(4-chloro-phenyl)phenylmethyl]piperazinyl}ethoxy)-5-[4-(aminohydroxy-carbonylamino)butyl] benzamide]	
6.59	5.77	NC(=O)N(O)Cc1ccc(C#CCN2CCN([C@H](c3ccccc3)c3ccc(Cl)cc3)CC2)cc1 [Compound 3, N-{[4-(3-{4-[(1R) (4-chlorophenyl)phenylmethyl]piperazinyl}prop-1-ynyl)phenyl]methyl} amino-N-hydroxyamide]	
7.64	5.69	NC(=O)N(O)Cc1cccc(OCCN2CCN([C@H](c3ccccc3)c3ccc(Cl)cc3)CC2)c1 [Compound 5, N-{[3-(2-{4-[(1R) (4-chlorophenyl)phenylmethyl]piperazinyl}ethoxy)phenyl]methyl} amino-N-hydroxyamide]	
8.00	5.61	NC(=O)N(O)Cc1ccc(CCCN2CCN([C@H](c3ccccc3)c3ccc(Cl)cc3)CC2)cc1 [Compound 13, N-{[4-(3-{4-[(1R) (4-chlorophenyl)phenylmethyl]piperazinyl}propyl)phenyl]methyl} amino-N-hydroxyamide]	
6.92	6.91	COC(=O)c1cc(CCCCN(O)C(N)=O)ccc1OCCN1CCN([C@H](c2ccccc2)c2ccc(Cl)cc2)CC1 [Compound 40, methyl2-(2-{4-[(1R) (4-chlorophenyl)phenyl-methyl]piperazinyl}ethoxy)-5-[4-(amino-hydroxycarbonylamino)butyl]benzoate]	
7.82	5.68	NC(=O)N(O)CCOCCN1CCN([C@H](c2ccccc2)c2ccc(Cl)cc2)CC1 (racemic) [Compound 18, amino-N-[2-(2-{4-[(4-chlorophenyl)phenylmethyl]piperazinyl}ethoxy)ethyl]-N-hydroxyamide]	
8.40	5.18	NC(=O)N(O)CCC#Cc1ccc(OCCN2CCN([C@H](c3ccccc3)c3ccc(Cl)cc3)CC2)c(C(=O)O)c1 [Compound 37, 2-(2-{4-[(1R)(4-chlorophenyl)phenyl-methyl]piperazinyl}ethoxy)-5-[4-(amino-hydroxycarbonylamino)but-1-ynyl]benzoic acid]	
7.03	5.58	NC(=O)N(O)CC#CCN1CCN(C(c2ccc(F)cc2)c2ccc(F)cc2)CC1 [Compound 16, amino-N-(4-{4-[bis(4-fluorophenyl)methyl]piperazinyl}but-2-ynyl)-N-hydroxyamide]	
6.66	5.24	NC(=O)N(O)Cc1cccc(C#CCN2CCN([C@H](c3ccccc3)c3ccc(Cl)cc3)CC2)c1 [Compound 8, N-{[3-(3-{4-[(1R) (4-chlorophenyl)phenylmethyl]piperazinyl}prop-1-ynyl)phenyl]methyl} amino-N-hydroxyamide]	
7.92	5.37	NC(=O)N(O)CC#CCN1CCN([C@H](c2ccccc2)c2ccc(Cl)cc2)CC1 [Compound 9, N-(4-{4-[(1R) (4-chlorophenyl)phenylmethyl]piperazinyl}but-2-ynyl) amino-N-hydroxyamide]	
8.70	5.56	NC(=O)N(O)CCCCc1ccc(OCCN2CCN([C@H](c3ccccc3)c3ccc(Cl)cc3)CC2)c(C(=O)O)c1 [Compound 43, 2-(2-{4-[(1R)(4-chlorophenyl)phenylmethyl]piperazinyl}ethoxy)-5-[4-(aminohydroxycarbonylamino)butyl] benzoic acid]	

Molecule	pKi (human cloned H1 receptor)	pIC50 [2]	also measured
NC(=O)N(O)CCC#Cc1ccc(CN2CCN([C@H](c3ccccc3)c3ccc(Cl)cc3)CC2)o1 [Compound 27, N-{4-[5-({4-[(1R) (4-chlorophenyl)phenylmethyl]piperazinyl}methyl)(2-furyl)]but-3-ynyl}amino-N-hydroxyamide]	6.82	6.19	inhibition in vivo at 2 mg/kg ([1]; 3 hrs): 86%; inhibition in vivo at 2 mg/kg ([1]; 6 hrs): 91%; % inhibition of histamine-induced bronchoconstriction ([1]; 6 hrs): 91%; % inhibition of 5-lipoxygenase (5-lipoxygenase; 1 hour): 88%
NC(=O)N(O)Cc1ccc(CN2CCN([C@H](c3ccccc3)c3ccc(Cl)cc3)CC2)o1 [Compound 26, N-{[5-({4-[(1R) (4-chlorophenyl)phenylmethyl]piperazinyl}methyl)(2-furyl)]methyl} amino-N-hydroxyamide]	8.40	5.77	
